Data set [1] relates to apoE4 astrocytic cell line. Description: Cellular viability / cytotoxicity of the hits. Type of data set: cell-based, Rodent. The note with it: 50 μM. As for the experimental part: FIG. 10: Effects of test compounds (HTS hits) on cellular viability. Experiments were performed on apoE4 astrocytic cell line in the presence of 50 μM of the indicated compounds. Viability was measured microscopically and by measurements of total cellular protein. (ii) Measurements of cytotoxicity of the hits.

The test system of a further data set is Rodent Astrocytes. Description: In situ Aβ plaque digestion by apoE4 astrocytes (orthogonal assay). The data set is classed as cell-based. As for the experimental part: FIG. 7: Schematic representation of assay measuring in situ A$ plaque degradation by apoE3 and apoE4 astrocytes. The assay is designed to measure the ability of astrocytes to digest senile plaques from brain slides of APP mice, which is impaired in apoE4 expressing astrocytes.
FIG. 9: Activity of test compounds (HTS hits) in the plaque digestion assay. Positive control is CS-6253 (25 μg/ml). Test compound concentration is 50 μM.
In situ Aβ plaque degradation by apoE3 and apoE4 astrocytes. This assay is based on measurement of the ability of the astrocytes to clear Aβ plaques following their co-incubation with brain sections of 5×FAD mice, which contain Aβ plaques. Accordingly, 20 μm coronal frozen brain sections were prepared from 9-13-month-old 5×FAD mice using cryostat and placed on glass slides, 3-4 consecutive sections in each slide. The slides were kept at −80° C. until used. At the beginning of the experiment, the slices were incubated for 48 hr at 37° C. with apoE3 and apoE4 astrocytes (10^5 cells in 100 μl medium per slice) in the presence of 50 μM, or otherwise indicated concentrations, of the HTS hits. The slides were gently placed in round petri dishes with thick wet paper, surrounding the slides. PapPen was used to draw liquid repellent borders of the sections to avoid spillage of coating out of the slides. The slides were gently washed of all containing remains by placing them in PBS for 10 minutes, and were then fixated with 4% PFA for 10 minutes, followed by 0.1% Triton solution for 10 minutes. The slides were then incubated with blocking solution (8% Horse Serum, 0.3% Triton, 1 gr/ml BSA, 0.02% Sodium Azide in PBS) for 30 minutes after which they were immunohistochemically stained with primary anti-PAmyloid (6E10) antibody at a dilution of 1:750 in blocking solution for 1 hr at room temperature. This was then followed by washing (×5 with PBST) and incubation with the secondary antibody (Alexa Fluor® 488 donkey α-mouse IgG, A-21202 at dilution of 1:250 at room temperature for 45 minutes. Nuclei were stained with DAPI (Vektashield, Burlingame, Calif.; H-1200). Analysis of the Aβ plaque burden was performed as percentage of the area covered in plaques using the ImageJ software.
(i) Orthogonal assay which monitors the extent to which the hits can reverse the impaired ability of apoE4 astrocytes to digest Aβ senile plaques in vitro. The principle of this orthogonal assay is presented in FIGS. 7 & 8 [17], whereas the activity of the HTS hits in this assay is presented in FIG. 9.

For a further data set, the system named is Human Astrocytes. The data set is described as follows: Cholesterol efflux (apoE4 lipidation) assay, BODIPY-cholesterol translocation to apoE4. Type of data set: cell-based. The note with it: Astrocyte, Human astrocytes, efflux to apoE4. As for the experimental part: Cholesterol efflux assay in HTS. CCF-STTG1 cells were plated in 384-well plates containing 50 μL/well RPMI supplemented with 10% FBS at a density of 5×10^3 cells/well, using a Multidrop 384 Reagent Dispenser (Thermo Scientific), and incubated for 48 hr. Cells were washed twice with 50 μl PBS using an EL406 Microplate Washer Dispenser (BioTek, Winooski, Vt., USA) before being labeled with 50 μl of 10 μM BODIPY-cholesterol+100 μM cyclodextrin (CD) in RPMI 1640 medium containing 0.2% BSA. The labeling medium was added using in a Washer Dispenser II (GNF, San Diego, Calif., USA). Plates were transferred automatically to a Liconic incubator (Mauren Principality of Liechtenstein) and incubated for 24 h. Subsequently, cells were washed twice as described above to remove external cholesterol. Next, 50 μl of the efflux medium was added, which contained recombinant apoE4 at a concentration of 40 μg/ml in transparent RPMI 1640 (no phenol red), again using Washer Dispenser II (GNF, San Diego, Calif., USA). The positive control contained the ABCA1 activator, CS-6253 (120 μg/ml) in addition to the acceptor (apoE4). After 7 hr of efflux, the medium was transferred to new plates, using the Bravo Automated Liquid Handling system (Agilent, Santa Clara, Calif., USA). Fluorescence polarization (FP) and fluorescence intensity (FI) of the medium were measured in a PheraStar FS plate reader (BMG Labtech, Ortenberg, Germany).
The apoE4 lipidation Assay is based on measurements of the ability of astrocytes to translocate fluorescently labelled cholesterol to recombinant non lipidated apoE4 and on the extent to which this effect is enhanced by treatment with each of the screened compounds (FIG. 2, 3). This assay is an adaptation of previous studies of cholesterol translocation from labelled astrocytes to external acceptors such as apoE4 [16], except that in order to differentiate between gene expression related effects and direct biochemical effects of the hits on ABCA1, the incubations of the HTS with the cells was limited to 8 hours. The extent to which the cells secret the labelled cholesterol and transfer it to non-lipidated apoE4 was determined by regular fluorescence as well as by fluorescence polarization microscopy. The latter technique in this context is used due to its sensitivity to particle size which decreases the background signal by differentiating between free and particle bound released cholesterol.
The assay was characterized biochemically and it was shown that translocation of labelled cholesterol to apoE4 is time and concentration dependent (FIG. 4) and was increased by the positive control ABCA1 agonistic 26mer peptide CS-6253 [4] (FIG. 5). The assay was used for high throughput screening (HTS) and selection of positive hits. 50,000 compounds from commercially available libraries were screened utilizing the double criteria of a signal greater than 3 standard deviations from the mean of all of the screened compounds, and being similar or greater than the apoE4 lipidation driven by the ABCA1 agonistic peptide CS-6253. Additional criteria included the tier drug ability value with tier 1 being best and tier 3 being least suitable, as well as a hydrophobicity value of 2<log P<5 value. This yielded 14 hits, designated Compounds #1-#14 (FIG. 6).

For a further data set, the system named is apoE4 TR mice. The data set is described as follows: Intraventricular Alzet pump administration to apoE4 TR mice, 11 days. Type of data set: in vivo. The note with it: intraventricular pump 11 days, vs ACSF. As for the experimental part: These experiments utilized the Alzet osmotic pump to administer labeled compounds #10 and N1 into the ventricles of apoE4 TR mice. The Alzet pumps administered 0.25 μl/hr of the compounds for 11 days. The reagents concentrations were […] for compounds #10 and N1, respectively, reaching estimated concentrations of 200 μM and 250 μM in the CSF. As control groups, apoE3 and apoE4 mice injected with artificial cerebrospinal fluid were used. Four groups, each containing 5 mice were used in the experiments. The total SDS levels in the different groups were measured. […] FIG. 16 depicts the results of the high molecular weight complexes indicating the increase in the apoE4 treated with compounds #10 and N1.
High AT180 corresponds to hyperphosphorylated tau which is pathological.

The next data set deals with T1, ECD1 of ABCA1 (Homo sapiens, UniProt O95477).
T1 construct: The proteins used in these experiments were Extra-Cellular Domain 1 (ECD1) of ABCA1 and Extra-Cellular Domain 2 (ECD2); purchased Biomatick
T1 sequence (O95477 43-639 limits assumed): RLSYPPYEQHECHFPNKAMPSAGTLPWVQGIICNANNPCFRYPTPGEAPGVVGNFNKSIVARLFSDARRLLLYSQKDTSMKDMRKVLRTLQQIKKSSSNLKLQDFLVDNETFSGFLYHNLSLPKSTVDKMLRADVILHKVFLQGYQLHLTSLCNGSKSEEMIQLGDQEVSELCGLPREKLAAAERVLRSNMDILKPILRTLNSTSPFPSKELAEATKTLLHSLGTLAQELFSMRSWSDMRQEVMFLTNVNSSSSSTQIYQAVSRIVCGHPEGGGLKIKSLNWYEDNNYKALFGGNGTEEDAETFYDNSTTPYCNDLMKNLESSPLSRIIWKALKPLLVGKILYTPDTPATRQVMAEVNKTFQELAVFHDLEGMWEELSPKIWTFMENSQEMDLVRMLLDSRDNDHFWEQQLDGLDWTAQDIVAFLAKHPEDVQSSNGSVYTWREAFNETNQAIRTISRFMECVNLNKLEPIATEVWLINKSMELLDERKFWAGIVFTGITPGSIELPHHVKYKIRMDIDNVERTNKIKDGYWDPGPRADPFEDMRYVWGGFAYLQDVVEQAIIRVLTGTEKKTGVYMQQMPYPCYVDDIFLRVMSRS
Description: Microscale thermophoresis (MST) binding, label free protein. The note with it: unlabelled ECD1. As for the experimental part: Microscale thermophoresis (MST) measurements. MST measurements of the binding of the HTS hits to the extracellular domain (ECD) of ABCA1 were performed by two complimentary methods utilizing either fluorescently labeled proteins or the endogenous fluorescence of unlabeled proteins. This was pursued as follows:
The experiments were performed with the purified extracellual domains 1 (ECD1) and 2 (ECD2) of ABCA1 [18]. Two complementary MST tests were performed, in which either the proteins were labeled with a fluorescence moiety or the endogenous fluorescence of the unlabeled proteins was monitored).

Structures are written as SMILES.

By EC50 is commonly meant the concentration needed to bring the measured effect to its halfway point. Regarding `Cc1cc(C)c(/C=C2\C(=O)Nc3ccccc32)[nH]1` [Hit #10], the “Viability Rodent Astrocytes” value in data set [1] (Table 2) and in data set [1] (Table 4) was “Normal” throughout. The “Plaque digestion assay (50 μM) Rodent Astrocytes” value in the data set with Rodent Astrocytes (Table 2) and in the data set on Rodent Astrocytes (Table 4) was 182% each time. Moreover, the EC50 in the data set on Human Astrocytes (Table 2) and in the data set with Human Astrocytes (Table 4) was > 44.8 µM throughout. Also, the “Hippocampal phosphorylated tau (AT180)” value in the data set on apoE4 TR mice is “reversed the pathology”. For the same compound, the “Levels of high molecular weight lipidated ApoE4 (native gels)” value in the data set on apoE4 TR mice is recorded as “increase”. Besides, the “Total hippocampal ApoE4 levels (total SDS levels)” value in the data set on apoE4 TR mice is “reversed the effect”.
As a reminder, the Kd is the constant that tells how readily two partners part at equilibrium. Read a low Kd as tighter binding. For the compound `Clc1cc(N2CCOCC2)c2nonc2c1` [Hit #99], the EC50 in the data set on Human Astrocytes (Table 4) is > 44.8 µM. For the same compound, on ECD1 of ABCA1, the “Binding to ECD1 (Label free MST) Amplitude” value is listed as 24.15 a.u and the Kd was 59 µM.
As to `O=C(O)CSc1cc(Cl)c2nonc2c1[N+](=O)[O-]` [Hit N1], in the data set with apoE4 TR mice, the “Hippocampal phosphorylated tau (AT180)” value is listed as “reversed the pathology”, the “Levels of high molecular weight lipidated ApoE4 (native gels)” value is recorded as “increase” and the “Total hippocampal ApoE4 levels (total SDS levels)” value is on record as “reversed the effect”.

The values above are taken from US20230103965A1, “NOVEL ACTIVATORS OF THE LIPIDATING TRANSPORTER ATP BINDING CASSETTE PROTEIN TYPE 1 (AB-CA1) AND THERAPEUTIC USES THEREOF” (RAMOT AT TEL-AVIV UNIVERSITY LTD., priority 2020, published 2023).
